This is an account of results in ChEMBL document CHEMBL3580597 (J Med Chem, 2015).

By Kd is commonly meant a measure of binding affinity in units of concentration. Low values mean a tighter complex, high ones a looser complex. For orientation: IC50 means the midpoint of a concentration-inhibition curve. Low values mean greater potency in that assay, high ones weaker potency in that assay. As a reminder, the Ki is a measure of affinity in units of concentration, obtained from inhibition or displacement.

The target of test [1] is T1, Bromodomain-containing protein 2 (Homo sapiens, UniProt P25440). As to the kind of experiment: Binding affinity to biotinylated BRD2 BD1 (72 to 205 amino acid residues) (unknown origin) expressed in Rosetta2 DE3 cells by bio-layer interferometry method. Background: BLI is a label-free optical method that tracks binding on a fibre tip over time.
T1 sequence (P25440 whole entry, the tested form may be a part): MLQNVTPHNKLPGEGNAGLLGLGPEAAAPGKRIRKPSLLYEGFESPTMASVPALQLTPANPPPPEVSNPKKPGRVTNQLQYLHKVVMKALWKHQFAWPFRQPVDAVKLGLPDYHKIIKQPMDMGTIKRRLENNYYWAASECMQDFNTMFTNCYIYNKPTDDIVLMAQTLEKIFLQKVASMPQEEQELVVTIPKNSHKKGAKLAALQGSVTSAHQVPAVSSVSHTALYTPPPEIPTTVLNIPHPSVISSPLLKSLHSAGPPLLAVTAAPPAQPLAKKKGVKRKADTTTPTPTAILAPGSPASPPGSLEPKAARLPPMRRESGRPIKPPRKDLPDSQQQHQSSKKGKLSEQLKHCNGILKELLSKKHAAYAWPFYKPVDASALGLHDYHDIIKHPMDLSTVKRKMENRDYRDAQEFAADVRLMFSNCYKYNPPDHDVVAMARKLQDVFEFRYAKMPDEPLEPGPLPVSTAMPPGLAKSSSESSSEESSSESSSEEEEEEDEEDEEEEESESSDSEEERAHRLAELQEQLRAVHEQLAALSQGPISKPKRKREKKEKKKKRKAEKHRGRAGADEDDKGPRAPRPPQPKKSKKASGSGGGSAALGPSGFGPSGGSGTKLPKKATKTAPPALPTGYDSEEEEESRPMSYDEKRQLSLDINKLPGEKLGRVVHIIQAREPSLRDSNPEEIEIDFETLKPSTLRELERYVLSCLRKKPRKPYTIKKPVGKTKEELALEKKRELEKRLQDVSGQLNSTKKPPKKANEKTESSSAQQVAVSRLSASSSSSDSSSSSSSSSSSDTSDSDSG
In test [2] the target is T1, Bromodomain-containing protein 2. As to the kind of experiment: Binding affinity to biotinylated BRD2 BD2 (349 to 460 amino acid residues) (unknown origin) expressed in Rosetta2 DE3 cells by bio-layer interferometry method.
In the next test the target is CREB-binding protein (Homo sapiens, UniProt Q92793). As to the kind of experiment: Binding affinity to biotinylated CREBBP (1043 to 1159 amino acid residues) (unknown origin) expressed in Rosetta2 DE3 cells by bio-layer interferometry method.
Test [3] addresses T2, ATPase family AAA domain-containing protein 2 (Homo sapiens, UniProt Q6PL18).
T2 sequence (Q6PL18 whole entry): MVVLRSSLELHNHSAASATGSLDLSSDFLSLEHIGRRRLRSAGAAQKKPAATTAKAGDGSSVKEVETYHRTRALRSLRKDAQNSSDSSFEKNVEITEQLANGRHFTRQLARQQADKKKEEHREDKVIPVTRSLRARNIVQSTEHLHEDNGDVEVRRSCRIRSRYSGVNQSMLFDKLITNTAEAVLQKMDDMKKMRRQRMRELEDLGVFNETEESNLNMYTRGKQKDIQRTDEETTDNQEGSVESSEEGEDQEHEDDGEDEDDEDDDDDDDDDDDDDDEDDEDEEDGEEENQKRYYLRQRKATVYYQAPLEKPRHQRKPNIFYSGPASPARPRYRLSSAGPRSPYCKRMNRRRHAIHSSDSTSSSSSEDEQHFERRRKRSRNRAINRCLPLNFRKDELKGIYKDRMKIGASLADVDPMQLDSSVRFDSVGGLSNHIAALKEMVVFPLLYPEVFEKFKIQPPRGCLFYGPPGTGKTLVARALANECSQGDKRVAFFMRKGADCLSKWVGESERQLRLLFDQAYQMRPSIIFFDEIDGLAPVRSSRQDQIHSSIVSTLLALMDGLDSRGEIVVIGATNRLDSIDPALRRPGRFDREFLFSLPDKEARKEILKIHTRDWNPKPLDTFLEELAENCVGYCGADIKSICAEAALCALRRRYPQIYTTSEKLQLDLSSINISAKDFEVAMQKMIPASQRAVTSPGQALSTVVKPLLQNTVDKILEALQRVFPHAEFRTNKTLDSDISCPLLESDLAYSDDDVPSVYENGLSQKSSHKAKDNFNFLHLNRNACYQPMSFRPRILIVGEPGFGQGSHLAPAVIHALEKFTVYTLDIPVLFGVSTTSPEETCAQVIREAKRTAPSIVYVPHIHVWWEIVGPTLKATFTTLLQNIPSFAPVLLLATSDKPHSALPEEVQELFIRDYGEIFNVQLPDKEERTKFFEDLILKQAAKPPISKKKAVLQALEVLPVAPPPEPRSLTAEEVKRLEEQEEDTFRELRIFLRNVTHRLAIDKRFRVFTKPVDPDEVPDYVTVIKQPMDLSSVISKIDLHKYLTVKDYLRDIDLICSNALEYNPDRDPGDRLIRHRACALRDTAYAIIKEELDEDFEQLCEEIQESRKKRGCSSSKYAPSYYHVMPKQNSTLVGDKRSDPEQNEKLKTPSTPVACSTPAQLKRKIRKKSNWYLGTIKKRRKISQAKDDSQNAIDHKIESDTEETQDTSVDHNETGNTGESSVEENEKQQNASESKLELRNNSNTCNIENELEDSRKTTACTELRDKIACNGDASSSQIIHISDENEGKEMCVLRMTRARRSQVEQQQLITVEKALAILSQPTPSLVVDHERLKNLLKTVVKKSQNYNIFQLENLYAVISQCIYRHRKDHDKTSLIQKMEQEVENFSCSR
As to the kind of experiment: Binding affinity to biotinylated ATAD2A (981 to 1108 amino acid residues) (unknown origin) expressed in Rosetta2 DE3 cells by bio-layer interferometry method.

Test [4] has as its target Histone-lysine N-methyltransferase 2A (Homo sapiens, UniProt Q03164). As to the kind of experiment: Binding affinity to biotinylated MLL1 (1566 to 1784 amino acid residues) (unknown origin) expressed in Rosetta2 cells by bio-layer interferometry method.
Test [5] addresses Transcription initiation factor TFIID subunit 1 (Homo sapiens, UniProt P21675). As to the kind of experiment: Binding affinity to biotinylated TAF1B2 (155 to 276 amino acid residues) (unknown origin) expressed in Rosetta2 cells by bio-layer interferometry method.
For test [6], the target named is SWI/SNF-related matrix-associated actin-dependent regulator of chromatin subfamily A member 4 (Homo sapiens, UniProt P51532). As to the kind of experiment: Binding affinity to biotinylated BRG1 (59 to 180 amino acid residues) (unknown origin) expressed in Rosetta2 cells by bio-layer interferometry method.
In a further test the target is Protein polybromo-1 (Homo sapiens, UniProt Q86U86). As to the kind of experiment: Binding affinity to biotinylated PB1BR5 (645 to 766 amino acid residues) (unknown origin) expressed in Rosetta2 cells by bio-layer interferometry method.
Sequence of Protein polybromo-1 (Q86U86 whole entry, the tested form may be a part): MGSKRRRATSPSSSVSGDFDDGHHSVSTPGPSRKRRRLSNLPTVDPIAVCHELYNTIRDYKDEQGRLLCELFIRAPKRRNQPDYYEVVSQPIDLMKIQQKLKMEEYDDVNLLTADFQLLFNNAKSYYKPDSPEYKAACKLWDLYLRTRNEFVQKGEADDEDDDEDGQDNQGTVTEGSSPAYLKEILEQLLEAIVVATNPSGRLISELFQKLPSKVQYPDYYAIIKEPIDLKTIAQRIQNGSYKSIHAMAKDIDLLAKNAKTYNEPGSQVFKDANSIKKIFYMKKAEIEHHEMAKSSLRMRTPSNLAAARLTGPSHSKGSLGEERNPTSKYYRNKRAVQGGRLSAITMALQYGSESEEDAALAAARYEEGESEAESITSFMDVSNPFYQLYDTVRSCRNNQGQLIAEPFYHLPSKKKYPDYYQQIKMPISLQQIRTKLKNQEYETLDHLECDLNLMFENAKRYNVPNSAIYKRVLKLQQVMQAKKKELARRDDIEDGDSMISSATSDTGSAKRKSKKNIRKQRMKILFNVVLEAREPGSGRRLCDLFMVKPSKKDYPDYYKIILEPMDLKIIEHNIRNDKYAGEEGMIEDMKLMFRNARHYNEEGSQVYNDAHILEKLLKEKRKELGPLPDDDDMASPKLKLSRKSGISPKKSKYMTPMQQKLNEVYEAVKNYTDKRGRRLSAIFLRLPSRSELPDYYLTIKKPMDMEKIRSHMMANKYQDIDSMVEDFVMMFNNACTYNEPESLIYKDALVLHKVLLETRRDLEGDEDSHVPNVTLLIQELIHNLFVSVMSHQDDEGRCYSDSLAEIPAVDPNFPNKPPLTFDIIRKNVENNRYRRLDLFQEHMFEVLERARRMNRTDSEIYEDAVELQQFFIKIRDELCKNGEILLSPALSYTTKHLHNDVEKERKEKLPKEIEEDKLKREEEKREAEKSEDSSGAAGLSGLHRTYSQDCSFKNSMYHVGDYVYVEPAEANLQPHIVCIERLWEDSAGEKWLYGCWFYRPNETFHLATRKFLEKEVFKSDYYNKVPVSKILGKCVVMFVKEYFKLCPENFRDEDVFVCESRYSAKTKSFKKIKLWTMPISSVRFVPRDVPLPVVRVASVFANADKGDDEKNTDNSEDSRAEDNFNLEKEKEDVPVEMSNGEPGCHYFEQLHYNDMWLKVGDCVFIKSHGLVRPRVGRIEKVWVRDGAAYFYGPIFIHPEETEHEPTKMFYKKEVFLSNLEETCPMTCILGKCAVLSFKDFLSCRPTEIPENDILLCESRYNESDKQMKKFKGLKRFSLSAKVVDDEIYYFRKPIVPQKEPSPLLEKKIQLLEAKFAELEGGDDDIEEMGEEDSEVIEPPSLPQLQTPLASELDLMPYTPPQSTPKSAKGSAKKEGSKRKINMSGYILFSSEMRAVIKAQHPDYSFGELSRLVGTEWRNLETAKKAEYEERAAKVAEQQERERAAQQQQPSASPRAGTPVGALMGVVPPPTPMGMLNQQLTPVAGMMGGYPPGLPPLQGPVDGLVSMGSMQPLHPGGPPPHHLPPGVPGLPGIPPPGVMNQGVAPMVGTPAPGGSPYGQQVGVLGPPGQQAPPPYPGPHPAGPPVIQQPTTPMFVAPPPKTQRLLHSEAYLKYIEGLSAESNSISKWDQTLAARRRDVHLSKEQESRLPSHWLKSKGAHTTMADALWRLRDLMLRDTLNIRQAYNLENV
The target of test [7] is T3, Bromodomain-containing protein 4 (Homo sapiens, UniProt O60885). As to the kind of experiment: Displacement of FAM-labeled ZBA248 from BRD4 BD1 (44 to 168 amino acid residues) (unknown origin) expressed in Rosetta2 DE3 cells after 30 mins by fluorescence polarization assay. For orientation: In fluorescence polarisation assays a small probe gives low polarisation when free and higher when bound to something large.

Test [8] concerns the target T1, Bromodomain-containing protein 2. As to the kind of experiment: Displacement of FAM-labeled ZBA248 from BRD2 BD1 (72 to 205 amino acid residues) (unknown origin) expressed in Rosetta2 DE3 cells after 30 mins by fluorescence polarization assay.
The target of test [9] is T3, Bromodomain-containing protein 4. As to the kind of experiment: biochemical.

Sequence of Transcription initiation factor TFIID subunit 1 (P21675 whole entry, the tested form may be a part): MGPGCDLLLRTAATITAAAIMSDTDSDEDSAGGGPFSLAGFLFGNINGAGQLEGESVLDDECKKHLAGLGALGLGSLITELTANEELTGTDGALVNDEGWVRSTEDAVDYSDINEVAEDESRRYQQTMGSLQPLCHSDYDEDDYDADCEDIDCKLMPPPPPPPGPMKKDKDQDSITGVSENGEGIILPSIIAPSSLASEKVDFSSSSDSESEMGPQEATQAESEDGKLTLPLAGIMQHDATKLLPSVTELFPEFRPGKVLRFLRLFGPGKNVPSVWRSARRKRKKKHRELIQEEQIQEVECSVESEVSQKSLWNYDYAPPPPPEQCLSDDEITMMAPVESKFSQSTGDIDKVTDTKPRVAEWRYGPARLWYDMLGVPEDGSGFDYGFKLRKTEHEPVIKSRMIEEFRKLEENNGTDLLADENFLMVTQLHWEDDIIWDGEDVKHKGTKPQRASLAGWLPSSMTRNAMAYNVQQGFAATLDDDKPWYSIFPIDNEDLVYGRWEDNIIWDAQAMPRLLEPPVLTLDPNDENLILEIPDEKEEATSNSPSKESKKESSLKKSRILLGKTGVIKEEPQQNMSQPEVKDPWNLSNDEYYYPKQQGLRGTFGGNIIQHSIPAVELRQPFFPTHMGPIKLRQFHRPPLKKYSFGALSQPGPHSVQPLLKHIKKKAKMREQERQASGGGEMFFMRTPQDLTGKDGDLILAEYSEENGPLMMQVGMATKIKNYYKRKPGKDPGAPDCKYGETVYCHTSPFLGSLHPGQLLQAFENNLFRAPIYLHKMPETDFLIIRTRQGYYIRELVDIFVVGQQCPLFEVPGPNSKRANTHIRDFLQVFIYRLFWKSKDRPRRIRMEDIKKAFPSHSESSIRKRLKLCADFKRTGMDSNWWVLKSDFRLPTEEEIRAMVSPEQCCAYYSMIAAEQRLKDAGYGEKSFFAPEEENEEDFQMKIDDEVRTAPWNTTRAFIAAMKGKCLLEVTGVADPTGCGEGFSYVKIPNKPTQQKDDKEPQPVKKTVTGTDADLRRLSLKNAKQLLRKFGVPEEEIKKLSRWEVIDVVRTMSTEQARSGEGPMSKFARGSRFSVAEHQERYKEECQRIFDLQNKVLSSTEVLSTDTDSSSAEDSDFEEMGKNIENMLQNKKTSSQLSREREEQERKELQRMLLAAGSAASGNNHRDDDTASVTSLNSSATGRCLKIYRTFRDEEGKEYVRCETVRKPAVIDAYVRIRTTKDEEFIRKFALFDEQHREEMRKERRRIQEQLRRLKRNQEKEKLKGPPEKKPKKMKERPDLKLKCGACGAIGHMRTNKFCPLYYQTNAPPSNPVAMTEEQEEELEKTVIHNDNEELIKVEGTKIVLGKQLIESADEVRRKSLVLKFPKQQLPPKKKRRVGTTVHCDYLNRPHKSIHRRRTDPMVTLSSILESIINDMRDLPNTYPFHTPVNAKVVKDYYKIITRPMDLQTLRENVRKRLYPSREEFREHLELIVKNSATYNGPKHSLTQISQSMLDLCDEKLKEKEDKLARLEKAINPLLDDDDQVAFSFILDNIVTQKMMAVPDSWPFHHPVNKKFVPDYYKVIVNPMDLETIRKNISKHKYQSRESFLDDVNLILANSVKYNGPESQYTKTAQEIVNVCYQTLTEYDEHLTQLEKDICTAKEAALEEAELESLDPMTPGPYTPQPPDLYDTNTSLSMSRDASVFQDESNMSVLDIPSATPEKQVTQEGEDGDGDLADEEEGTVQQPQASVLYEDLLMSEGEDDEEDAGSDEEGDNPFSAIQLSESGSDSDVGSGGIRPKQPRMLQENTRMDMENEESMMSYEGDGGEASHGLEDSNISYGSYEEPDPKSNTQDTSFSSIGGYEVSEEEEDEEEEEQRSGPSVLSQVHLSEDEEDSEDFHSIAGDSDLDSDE

`COc1cc2c(cc1-c1c(C)noc1C)[nH]c1ccnc(-c3c(C4CC4)n[nH]c3C)c12`: the Kd in test [1] is 48.1 nM; in [2] it was 29.6 nM; on CREB-binding protein it was 670 nM; in test [3], greater than 10000 nM; in [4], 9500 nM; in [5] it was greater than 10000 nM. The Kd in test [6] is greater than 10000 nM; on Protein polybromo-1, greater than 10000 nM; in test [9], 47 nM. This compound yielded an IC50 in test [7] of 75.5 nM. The Ki worked out at 24.7 nM in test [7] and 11.1 nM in [8].
